We go through one compound from patent US20040242627A1, “2-Iminoimidazole derivatives (1)” (priority 2001, published 2004).

The target in one assay is T1, PAR1 thrombin receptor (Homo sapiens, UniProt P25116).
T1 construct: homogenized with a Dounce homogenizer, and then centrifuged at 40,000 g for 60 minutes to yield platelet membrane; from tissue; host or cells: platelet membrane prepared from the blood of a healthy adult donor
T1 sequence (P25116 22-425): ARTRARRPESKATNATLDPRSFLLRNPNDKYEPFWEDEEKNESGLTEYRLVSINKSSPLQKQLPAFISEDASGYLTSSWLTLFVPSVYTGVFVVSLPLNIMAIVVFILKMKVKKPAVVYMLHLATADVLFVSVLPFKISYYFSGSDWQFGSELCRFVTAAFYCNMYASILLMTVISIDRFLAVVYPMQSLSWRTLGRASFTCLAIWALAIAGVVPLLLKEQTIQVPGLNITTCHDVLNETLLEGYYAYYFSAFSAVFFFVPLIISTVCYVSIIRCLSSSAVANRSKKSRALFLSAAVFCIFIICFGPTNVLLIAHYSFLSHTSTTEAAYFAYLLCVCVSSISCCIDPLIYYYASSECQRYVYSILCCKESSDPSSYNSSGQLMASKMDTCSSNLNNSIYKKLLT
The experiment in a line: Receptor binding assay (high affinity TRAP displacement, platelet membrane). Conditions: platelet membrane of healthy adult, [3H] high affinity TRAP, 37° C. 1 hour; read-out: RBA IC50. Here is the method: Blood was sampled from a healthy adult who had taken no drugs for one week, and 3.8% citric acid (a ratio of 1:9 with respect to the blood) was added as an anticoagulant. The mixture was then centrifuged at 100 g for 10 minutes at room temperature to yield platelet rich plasma (PRP). The platelet precipitate obtained by centrifuging the PRP was homogenized with a Dounce homogenizer, and then centrifuged at 40,000 g for 60 minutes to yield platelet membrane. The platelet membrane was suspended in a solution prepared by adding DMSO (dimethyl sulfoxide) at 1% concentration to Buffer 1: a 50 mM Tris-HCl buffer containing 10 mM MgCl2 and 1 mM EGTA (ethylene glycol tetraacetic acid), and the suspension was stored at −80° C. Bovine albumin and DMSO were added to Buffer 1 at 0.1% and 20%, respectively, to make a preparation solution for the test compound. […] Next, 30 μl of liquid scintillator was added for measurement of the radioactivity of the plate using a Top Counter (Packard), the value of the radioactivity in the presence of the test compound minus non-specific binding portion was divided by the specific binding value (the value of the binding in the absence of the compound minus the non-specific binding portion) to determine the binding ratio, from which the IC50 value was calculated. […]

Assay [1] deals with platelet rich plasma (PRP), thrombin-induced platelet aggregation. The experiment in a line: Inhibitory effects on platelet aggregation using platelet rich plasma (thrombin-induced). In kind it is cell-based. As to conditions: Homo sapiens, PRP of healthy adult, thrombin 0.5-1.5 units/ml, area under aggregation curve, read-out: Thr IC50. As for the experimental part:
[Inhibitory Effects on Platelet Aggregation using Platelet Rich Plasma]
Blood was sampled from a healthy adult who had taken no drugs for one week, and 3.8% citric acid (a ratio of 1:9 with respect to the blood) was added as an anticoagulant. The mixture was then centrifuged at 100 g for 10 minutes at room temperature to yield platelet rich plasma (PRP). The PRP-removed blood was further centrifuged at 1000 g for 10 minutes to yield platelet poor plasma (PPP). The number of platelet was counted using a multi-parameter automatic hemocyte counter (K4500, Sysmex), and the PRP was diluted to approximately 300,000/μl with the PPP. The platelet aggregation activity was determined in the following manner using an Aggregometer (MC Medical). […] After addition of thrombin, the aggregation reaction was examined for 6 minutes and the areas under the aggregation curves were compared to determine the inhibition ratio, from which the IC50 value was calculated.

Structures are written as SMILES. Where a name gives a salt, the structure may show the parent alone.

In the case of `CC(C)(C)c1cc(C(=O)Cn2c(=N)n(Cc3ccc(N)cc3)c3ccccc32)cc(C(C)(C)C)c1O` [Example 40, 2-[3-(4-amino-benzyl)-2-imino-2,3-di-hydro-benzimida-zol-1-yl]-1-(3,5-di-tert-bu-tyl-4-hydroxy-phenyl)-ethanone dihydrochloride], the half-inhibitory concentration (IC50) at PAR1 thrombin receptor was found to be 260 nM; in assay [1], 1300 nM.

Broadly, the IC50 is the concentration needed to halve the response being measured.
